From paper PMC9578445, “Association of respiratory failure with inhibition of NaV1.6 in the phrenic nerve” (Channels, 2022) come the findings set out here.

What all share (experiment): Panlabs selection
What all share (assay type): binding

The target of experiment [1] is Serotonin 5-HT2B (Homo sapiens, UniProt P41595). An excerpt: (§1) Supplement KCHL_A_2122309_SM6747.docx, table 1 | column: SSI-5; SSI-3; SSI-4; SSI-1
Experiment [2] addresses Transporter, Norepinephrine NET (Homo sapiens, UniProt P23975).
Description: as §1

The target of experiment [3] is T1, Adrenergic α2A (Homo sapiens, UniProt P08913).
T1 construct: Panlabs
Description: as §1

Serotonin 5-HT2B, sequence (P41595 whole entry): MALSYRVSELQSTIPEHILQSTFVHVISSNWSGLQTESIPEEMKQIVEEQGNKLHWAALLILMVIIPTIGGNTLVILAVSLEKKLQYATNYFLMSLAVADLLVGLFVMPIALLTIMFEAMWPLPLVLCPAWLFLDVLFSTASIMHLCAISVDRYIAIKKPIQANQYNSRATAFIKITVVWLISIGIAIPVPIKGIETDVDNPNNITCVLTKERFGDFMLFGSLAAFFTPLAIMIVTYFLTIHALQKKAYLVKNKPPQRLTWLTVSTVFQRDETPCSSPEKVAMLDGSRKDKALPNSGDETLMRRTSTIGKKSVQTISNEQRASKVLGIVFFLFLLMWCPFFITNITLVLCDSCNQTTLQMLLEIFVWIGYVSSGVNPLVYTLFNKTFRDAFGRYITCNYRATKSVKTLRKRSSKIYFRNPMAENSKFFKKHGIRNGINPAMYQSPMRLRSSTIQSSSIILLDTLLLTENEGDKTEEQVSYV
Transporter, Norepinephrine NET, sequence (P23975 whole entry): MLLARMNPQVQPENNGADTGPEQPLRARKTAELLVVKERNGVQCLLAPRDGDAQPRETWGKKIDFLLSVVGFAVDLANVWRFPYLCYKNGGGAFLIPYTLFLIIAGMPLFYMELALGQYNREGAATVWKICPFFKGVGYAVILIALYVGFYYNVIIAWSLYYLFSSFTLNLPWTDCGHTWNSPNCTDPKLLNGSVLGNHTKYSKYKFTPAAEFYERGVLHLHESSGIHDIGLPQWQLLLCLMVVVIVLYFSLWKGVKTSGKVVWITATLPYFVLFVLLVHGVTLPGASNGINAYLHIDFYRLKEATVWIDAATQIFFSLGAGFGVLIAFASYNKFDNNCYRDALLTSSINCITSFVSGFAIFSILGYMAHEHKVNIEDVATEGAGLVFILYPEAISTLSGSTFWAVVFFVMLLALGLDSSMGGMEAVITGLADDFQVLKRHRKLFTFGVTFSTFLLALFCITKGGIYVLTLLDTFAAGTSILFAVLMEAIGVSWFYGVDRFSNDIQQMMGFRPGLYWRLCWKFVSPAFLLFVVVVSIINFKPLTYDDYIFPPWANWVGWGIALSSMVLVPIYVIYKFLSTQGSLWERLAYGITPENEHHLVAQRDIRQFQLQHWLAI
T1 sequence (P08913 whole entry): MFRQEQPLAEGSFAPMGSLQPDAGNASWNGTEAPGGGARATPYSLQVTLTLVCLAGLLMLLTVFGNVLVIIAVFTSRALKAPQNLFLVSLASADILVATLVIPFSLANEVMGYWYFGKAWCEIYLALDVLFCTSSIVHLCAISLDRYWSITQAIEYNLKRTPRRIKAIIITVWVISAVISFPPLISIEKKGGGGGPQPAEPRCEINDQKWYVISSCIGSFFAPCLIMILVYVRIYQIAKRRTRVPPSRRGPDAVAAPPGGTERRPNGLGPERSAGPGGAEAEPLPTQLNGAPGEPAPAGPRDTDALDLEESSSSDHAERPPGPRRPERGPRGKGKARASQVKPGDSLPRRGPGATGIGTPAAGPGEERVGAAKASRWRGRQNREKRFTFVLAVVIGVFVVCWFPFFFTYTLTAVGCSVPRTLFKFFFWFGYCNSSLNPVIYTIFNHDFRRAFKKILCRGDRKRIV

With `O=S(=O)(Nc1nccs1)c1cc(Cl)c(NCCCCNC[C@H]2CCCN2)cc1F` [SSCI-1], the Ki (as a rule, a measure of affinity in units of concentration, obtained from inhibition or displacement) is greater than 10 µM in experiment [1], 3.93 µM in experiment [2] and greater than 10 µM in experiment [3].
